Assay results: ChEMBL document CHEMBL5725203, “Quinazolinone compounds and derivatives thereof” (2016)

Legend:
[1] = target: Poly [ADP-ribose] polymerase 1 (Homo sapiens, UniProt P09874); test: (§1) Biochemical Assay: PARP1 biochemical assay was purchased as a kit from Trevigen (cat.#4676-096-K) and used per manufacturers recommendations.PARP2 biochemical assay was purchased as a kit from BPS (cat.#80552) and used per manufacturers recommendations.
[2] = target: Poly [ADP-ribose] polymerase 2 (Homo sapiens, UniProt Q9UGN5); test: as §1
Poly [ADP-ribose] polymerase 2, sequence (Q9UGN5 whole entry): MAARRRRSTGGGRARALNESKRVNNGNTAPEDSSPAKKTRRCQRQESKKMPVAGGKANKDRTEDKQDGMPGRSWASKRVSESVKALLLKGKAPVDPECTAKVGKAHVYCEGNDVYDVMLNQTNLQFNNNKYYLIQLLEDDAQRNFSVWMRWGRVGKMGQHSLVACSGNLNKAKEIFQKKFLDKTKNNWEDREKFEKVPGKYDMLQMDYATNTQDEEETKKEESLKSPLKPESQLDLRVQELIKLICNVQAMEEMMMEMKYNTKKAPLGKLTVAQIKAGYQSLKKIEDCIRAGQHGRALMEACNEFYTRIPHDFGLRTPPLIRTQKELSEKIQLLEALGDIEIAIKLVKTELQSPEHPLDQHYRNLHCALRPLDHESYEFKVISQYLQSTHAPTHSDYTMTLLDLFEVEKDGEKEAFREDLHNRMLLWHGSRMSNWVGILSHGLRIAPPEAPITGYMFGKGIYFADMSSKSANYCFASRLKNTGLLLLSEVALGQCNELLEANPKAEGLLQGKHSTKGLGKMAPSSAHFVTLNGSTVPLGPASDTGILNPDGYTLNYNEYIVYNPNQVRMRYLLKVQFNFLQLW

Poly [ADP-ribose] polymerase 1, sequence (P09874 whole entry): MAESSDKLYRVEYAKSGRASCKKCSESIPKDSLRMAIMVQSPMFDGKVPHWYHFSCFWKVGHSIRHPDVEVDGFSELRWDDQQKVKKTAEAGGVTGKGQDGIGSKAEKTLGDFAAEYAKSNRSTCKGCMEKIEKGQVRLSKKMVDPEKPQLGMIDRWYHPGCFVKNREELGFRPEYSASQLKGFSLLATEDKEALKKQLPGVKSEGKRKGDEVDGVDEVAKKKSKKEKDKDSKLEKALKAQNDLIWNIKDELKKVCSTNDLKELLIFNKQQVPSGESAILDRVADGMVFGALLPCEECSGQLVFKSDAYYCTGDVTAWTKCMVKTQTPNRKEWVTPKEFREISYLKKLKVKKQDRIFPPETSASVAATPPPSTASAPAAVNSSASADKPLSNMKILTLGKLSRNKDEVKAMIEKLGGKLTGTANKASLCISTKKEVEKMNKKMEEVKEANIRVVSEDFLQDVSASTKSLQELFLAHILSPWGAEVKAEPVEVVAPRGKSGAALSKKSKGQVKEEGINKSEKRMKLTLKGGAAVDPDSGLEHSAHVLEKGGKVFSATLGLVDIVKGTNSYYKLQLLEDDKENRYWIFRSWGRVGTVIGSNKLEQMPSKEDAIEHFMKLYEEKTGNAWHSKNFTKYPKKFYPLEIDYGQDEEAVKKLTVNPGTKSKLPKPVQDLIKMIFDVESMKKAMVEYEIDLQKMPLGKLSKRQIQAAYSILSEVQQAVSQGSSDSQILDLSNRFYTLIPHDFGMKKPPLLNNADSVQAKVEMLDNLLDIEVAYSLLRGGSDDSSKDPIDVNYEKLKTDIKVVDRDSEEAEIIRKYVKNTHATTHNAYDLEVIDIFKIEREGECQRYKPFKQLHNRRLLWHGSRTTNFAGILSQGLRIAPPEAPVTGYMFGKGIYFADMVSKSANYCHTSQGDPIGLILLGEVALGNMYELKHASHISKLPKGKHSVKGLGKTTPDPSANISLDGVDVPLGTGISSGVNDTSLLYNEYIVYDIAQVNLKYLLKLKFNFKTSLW

IC50 [1] | IC50 [2] | Compound
10200 nM | 3020 nM | O=C(CCSc1nc2ccccc2c(=O)[nH]1)N[C@H]1CC[C@H](c2nnc(-c3ccncc3)o2)CC1
1290 nM | 893 nM | O=C(CCCc1nc2ccccc2c(=O)[nH]1)N[C@H]1CC[C@H](Oc2ccccc2)C1
2260 nM | 3080 nM | O=C(CCc1nc2ccccc2c(=O)[nH]1)N[C@H]1CC[C@H](n2c(=O)oc3ccccc32)CC1
> 85000 nM |  | O=C(CCc1cc(=O)n2ccccc2n1)N[C@H]1CC[C@H](c2nnc(-c3ccccc3)o2)CC1
2260 nM | 1370 nM | O=C(CCCc1nc2ccccc2c(=O)[nH]1)N1CCC(n2nnc3ccccc32)CC1

Continued, molecule first:

Compound | IC50 [1] | IC50 [2]
O=C(CCCc1nc2ccccc2c(=O)[nH]1)N1CCC(c2noc3ccc(F)cc23)CC1 | 5570 nM | 1440 nM
COc1ccc2c(c1)[nH]c(=O)n2C1CCN(C(=O)CCCc2nc3ccccc3c(=O)[nH]2)CC1 | 1780 nM | 160 nM
O=C(CCCc1nc2ccccc2c(=O)[nH]1)N1CCN(c2noc3ccccc23)CC1 | 992 nM | 333 nM
O=C1Nc2cc(Cl)ccc2C1C1CCN(C(=O)CCCc2nc3ccccc3c(=O)[nH]2)CC1 (racemic) | 7350 nM | 251 nM
